Ends that are not written are not given here. maleimide monolayer = not defined here
B1: KQAGDC (SEQ ID NO: 19), immobilized on a self-assembled monolayer (peptide)
peptide: KQAGDC-NH2
modifications: not fully specified (residue 6); also: C-terminal Cys thiol linked to maleimide of monolayer
notes: also called 0.5% KQAGDC SAM
B2: GGRDGSC (SEQ ID NO: 70), scrambled peptide immobilized on a self-assembled monolayer (peptide)
peptide: GGRDGSC(maleimide monolayer)-NH2
modifications: reading uncertain
notes: Control; also called 0.5% GGRDGSC
B3: GGAKQAC (SEQ ID NO: 15), immobilized on a self-assembled monolayer (peptide)
peptide: GGAKQAC(maleimide monolayer)-NH2
modifications: reading uncertain
notes: also called 0.5% GGAKQAC SAM
B4: HHLGGAC (SEQ ID NO: 13), immobilized on a self-assembled monolayer (peptide)
peptide: HHLGGAC(maleimide monolayer)-NH2
modifications: reading uncertain
notes: also called 0.5% HHLGGAC SAM
B5: GHHLGGADQAGKVC (SEQ ID NO: 71), scrambled peptide immobilized on a self-assembled monolayer (peptide)
peptide: GHHLGGADQAGKVC-NH2
modifications: not fully specified (residue 14); also: C-terminal Cys thiol linked to maleimide of monolayer
notes: Control
B6: KQAGC (SEQ ID NO: 20), immobilized on a self-assembled monolayer (peptide)
peptide: KQAGC-NH2
modifications: not fully specified (residue 5); also: C-terminal Cys thiol linked to maleimide of monolayer
notes: also called 0.5% KQAGC SAM
B7: AGDVC (SEQ ID NO: 17), immobilized on a self-assembled monolayer (peptide)
peptide: AGDVC(maleimide monolayer)-NH2
modifications: not fully specified; reading uncertain
notes: also called 0.5% AGDVC SAM
B8: QAGDVC (SEQ ID NO: 16), immobilized on a self-assembled monolayer (peptide)
peptide: QAGDVC-NH2
modifications: not fully specified (residue 6); also: C-terminal Cys thiol linked to maleimide of monolayer
notes: also called 0.5% QAGDVC SAM
B9: GDVC (SEQ ID NO: 18), immobilized on a self-assembled monolayer (peptide)
peptide: GDVC(maleimide monolayer)-NH2
modifications: reading uncertain
notes: also called 0.5% GDVC SAM
B10: KQAGDVC (SEQ ID NO: 14), immobilized on a self-assembled monolayer (peptide)
peptide: KQAGDVC(maleimide monolayer)-NH2
modifications: reading uncertain
notes: also called 0.5% KQAGDVC SAM

Each molecule was assayed on αIIbβ3 CHO K1 cells (assay: Cell adhesion inhibition assay with soluble peptides). Details: monolayer presenting GRGDS.
Format: cell-based, human
Protocol: Suspensions of αIIbβ3 CHO K1 cells (100,000/mL) were incubated with cRGDFG (SEQ ID NO: 12) (300 μM) in serum-free F-12K medium with 1 mg/mL BSA (bovine serum albumin) and 1× penicillin/streptomycin for 15 minutes at 37° C. and 5% CO2. These suspensions were then supplemented with soluble peptides at concentrations ranging from 1 pM to 100 μM and further incubated for 15 minutes at 37° C. and 5% CO2. Cells were then added to monolayers and incubated at 37° C. and 5% CO2 for 2 hours, then media was exchanged for F-12K medium supplemented with 10% FBS and 1× penicillin/streptomycin. The substrates were further incubated for 2 hours. The substrates were washed gently with warm PBS, and adherent cells were immediately fixed and permeabilized with 4% formaldehyde and 0.5% Triton-X for 30 minutes. Fixed cells were stained with DAPI, visualized and photographed with a 20× as described previously. The number of adherent cells per field of view was counted using Image J. Cells were counted in at least five fields for each substrate, and each experiment was repeated 3 times. The degree of inhibition is reported as a percentage of cells that adhere relative to control experiments in the absence of soluble peptide.
To verify that the two peptides interact with the same site on αIIbβ3, it was determined whether the peptides GRGDS (SEQ ID NO: 4), HHLGGAKQAGDV (SEQ ID NO: 1) and AGDV (SEQ ID NO: 22), in soluble form, could block the attachment of cells to the monolayers presenting these ligands. In these experiments identical suspensions of cells (100,000/mL) were first incubated in serum-free F-12K medium supplemented with cRGDFG (SEQ ID NO: 12) (300 μM) and with the soluble peptides in concentrations ranging from 1 pM to 100 μM and then applied the mixtures to monolayers presenting either the GRGDSC (SEQ ID NO: 11), HHLGGAKQAGDVC (SEQ ID NO: 21), or AGDVC (SEQ ID NO: 17) peptide (SEQ ID NO: 17) (FIG. 5). Cells were allowed to attach for 2 hours, after which media was exchanged to 10% FBS F-12K medium (supplemented with cRGDFG (SEQ ID NO: 12)) and cultured for an additional 2 hours. The slides were then rinsed and nuclei were stained with DAPI to facilitate counting of the adherent cells. […] This experiment again verifies that the cell attachment is mediated by the immobilized peptide alone and not non-specific interactions between other cell-surface molecules and the monolayer.

Molecule | block of cell attachment by soluble peptide
HHLGGAKQAGDV (not fully specified (C-terminus)) | blocked cell attachment
AGDV (completely synthesized peptide) | blocked cell attachment

Same assay, conditions: monolayers presenting GRGDSC, HHLGGAKQAGDVC or AGDVC; soluble peptide 1 pM to 100 μM; 300 μM cRGDFG

Molecule | block of cell attachment by soluble peptide
GADGV (scrambled peptide) | had no effect on cell adhesion
GRGDS (synthesized peptide inhibitor) | could block cell attachment to monolayers presenting any of the three peptides
HHLGGAKQAGDV (not fully specified (C-terminus)) | could block cell attachment to monolayers presenting any of the three peptides
AGDV (completely synthesized peptide) | could block cell attachment to monolayers presenting any of the three peptides
GHHLGGADQAGKV (scrambled peptide) | had no effect on cell adhesion
GGRDGS (scrambled peptide) | had no effect on cell adhesion

What follows are molecules tested on αIIbβ3 CHO K1 cells (assay: Ac-GXGDSC peptide array cell adhesion, αIIbβ3 CHO K1 cells). Details: 0.5% peptide spots; 300 μM cRGDFG.
Format: cell-based, human
Protocol: Cysteine-terminated peptides were immobilized onto maleimide-presenting SAMs by adding 40 μL of 1 mM peptide solution to the biochip and incubating at 37° C. for 1 hour. Substrates were rinsed with DIUF water and ethanol and dried under a stream of nitrogen. αIIbβ3 CHO K1 cells were detached from culture plates with 1 mM EGTA/2 mM EDTA in PBS (phosphate-buffered saline), rinsed with serum-free F-12K medium, centrifuged and resuspended in serum-free F-12K medium supplemented with cRGDFG (SEQ ID NO: 12) (300 μM) and 1× penicillin/streptomycin. After 15-minute of incubation, cells (200,000/mL) were added to substrates in 24-well culture plates. After 2 hour incubation at 37° C. and 5% CO2, media was exchanged for F-12K medium supplemented with 10% FBS, 1× penicillin/streptomycin and cRGDFG (SEQ ID NO: 12) (300 μM). After 2 hours, the substrates were washed gently with warm PBS, and adherent cells were immediately fixed with 4% formaldehyde for 30 minutes, visualized with a 20× objective of a Zeiss Axiovert 200 inverted microscope, and photographed. For cell adhesion assays mediated by Ac-GXGDSC (SEQ ID NO: 26), αIIbβ3 CHO K1 cells were incubated on a 5×4 circle (1 mm diameter) array for 1 hour with serum-free F-12K medium supplemented with cRGDFG (SEQ ID NO: 12) (300 μM) and 1× penicillin/streptomycin, followed by media exchange to F-12K medium supplemented with 10% FBS, 1× penicillin/streptomycin and cRGDFG (SEQ ID NO: 12) (300 μM. The substrates were washed with warm PBS, and adherent cells were immediately fixed and permeabilized with 4% formaldehyde and 0.5% Triton-X for 30 minutes. Fixed cells were stained with DAPI, visualized and photographed with a 20× objective as described. The number of adherent cells per field of view was counted using Image J software. Cells were counted in at least three fields for each circle, and each experiment was repeated 3 times. The degree of adhesion is reported as a percentage of cells that adhere relative to control experiments with the peptide Ac-GRGDSC (SEQ ID NO: 28).
To further assay the binding of peptide ligands to the […] integrin for XGD peptide ligands, an array was used to assess the adhesion of cells to peptides having the arginine residue substituted with each amino acid other than cysteine (e.g., A, D, E, F, G, H, I, K, L, M, N, P, Q, R, S, T, V, W, and Y). The library of Ac-GXGDSC (SEQ ID NO: 26) peptides was synthesized and immobilized in an array with each peptide occupying a 1 mm diameter region of the monolayer (FIG. 61). A suspension of αIIbβ3 CHO K1 cells was applied to the entire array and cells were allowed to attach to regions presenting the various peptides. The substrates were then rinsed and stained with DAPI, and the cells were counted to determine the relative efficiency of cell attachment to peptides in the library. […] Substitution with leucine and isoleucine were also active, though at a lower level.

Molecule | cell adhesion on Ac-GXGDSC array relative to Ac-GRGDSC
Ac-GKGDSC (Ac-GKGDSC-NH2) | mediated αIIbβ3 CHO K1 cell adhesion
Ac-GIGDSC (Ac-GIGDSC-NH2) | mediated αIIbβ3 CHO K1 cell adhesion
Ac-GAGDSC (Ac-GAGDSC-NH2) | mediated αIIbβ3 CHO K1 cell adhesion
Ac-GGGDSC (Ac-GGGDSC-NH2) | mediated αIIbβ3 CHO K1 cell adhesion
Ac-GLGDSC (Ac-GLGDSC-NH2) | mediated αIIbβ3 CHO K1 cell adhesion
Ac-GVGDSC (Ac-GVGDSC-NH2) | mediated αIIbβ3 CHO K1 cell adhesion

These molecules were tested against T1, human αIIbβ3 integrin on transfected CHO K1 cells (human, UniProt P08514 32-1039; P05106 27-788) (assay: adhesion of αIIbβ3 CHO K1 cells to the peptide monolayer, 300 µM cRGDFG present). Details: not given.
T1 construct: whole, on cells; CHO K1 cells transfected with human αIIb and β3 cDNA; about 30% of the cells expressed the receptor; also called platelet receptor; platelet integrin
Protocol: For cell adhesion assays mediated by Ac-GXGDSC (SEQ ID NO: 26), αIIbβ3 CHO K1 cells were incubated on a 5×4 circle (1 mm diameter) array for 1 hour with serum-free F-12K medium supplemented with cRGDFG (SEQ ID NO: 12) (300 μM) and 1× penicillin/streptomycin, followed by media exchange to F-12K medium supplemented with 10% FBS, 1× penicillin/streptomycin and cRGDFG (SEQ ID NO: 12) (300 μM. The substrates were washed with warm PBS, and adherent cells were immediately fixed and permeabilized with 4% formaldehyde and 0.5% Triton-X for 30 minutes. Fixed cells were stained with DAPI, visualized and photographed with a 20× objective as described. The number of adherent cells per field of view was counted using Image J software. Cells were counted in at least three fields for each circle, and each experiment was repeated 3 times. The degree of adhesion is reported as a percentage of cells that adhere relative to control experiments with the peptide Ac-GRGDSC (SEQ ID NO: 28).
CHO K1 cells were used that were transfected with the αIIbβ3 receptor, as described previously (Salsmann et al., 2005). Cells were transfected with pcDNA3.1 vectors that coded for αIIb and β3 using FuGENE6 and analyzed by FACS after labeling with the PAC-1 (anti-αIIbβ3) and H-96 (anti-β3) antibodies. Approximately 30% of the cells expressed the receptor (FIG. 2A). Because the CHO K1 cells also express αv and α5 integrins on their surfaces, adhesion experiments were performed in the presence of the cyclic peptide cRGDFG (SEQ ID NO: 12), where F is a D amino acid. […] Treatment of transfected cells with both the cyclic peptide inhibitor and the PAC-1 antibody, however, prevented cell adhesion to the monolayer (FIG. 2F).

binding result | Molecule
binds | B1
no binding | B2
no binding | B3
no binding | B4
no binding | B5
no binding | B6
binds | B7
binds | B8
no binding | B9
binds | B10

Reference: patent US20120252730A1, “PLATELET AGGREGATION INHIBITORS” (UNIVERSITY OF CHICAGO, priority 2009, published 2012)
